In one experiment the test system is E. coli TG1 pXL2158. As to the kind of experiment: Nitrilase activity of recombinant strain E. coli TG1 pXL2158. Particulars: no IPTG; whole cells; DW 0.24 g/l; 1 ml; pH 7.0; substrate 50 mM. Type of experiment: cell-based. On the procedure:
(§1) The activities of these strains, induced or non-induced, are measured on adiponitrile and 5-cyanovalerate at different pH values and are compared with the negative control strains: E. coli TG1, E. coli TG1 (pXL2035) and Pseudomonas putida G2081.
(§2) The cultures are carried out under the conditions described in Table 4. During the exponential growth phase, one of the two cultures of the recombinant strain is induced with 1 mM IPTG; after 2 h at 37° C., this culture is treated.
(§3) The conditions of the specific activity measurements and the results are collated in Table 5.
(§4) COMMON CONDITIONS: [substrate]=50 mM; T=25° C.; buffer 50 mM; kinetics over 90 min for 1 to 3 and over 120 min for 4 to 8.
(§5) ABBREVIATIONS: W=whole cells; S=sonicated cells; Ua=μmols of cyanovalerate produced/h; Ub=μmols of adipate produced/h; AdN=adiponitrile; CVA=5-cyanovalerate. DW=dry weight.

For a further experiment, the system named is E. coli TG1 pXL2035,2158. As to the kind of experiment: Nitrilase activity of recombinant strain E. coli TG1 pXL2035,2158. The experiment is classed as cell-based. To be noted: no IPTG; whole cells; DW 0.06 g/l; 1 ml; pH 7.0; substrate 50 mM. On the procedure: as §1, §2, §3, §4, §5

This is an account of results in US5635391A, “Isolated DNA encoding a nitrilase polypeptide, hosts containing, and expression thereof optionally assisted by a E. coli GroE chaperone polypeptide” (priority 1992, dated 1997).

For the compound `N#CCCCCC#N` [Adiponitrile, adiponitrile], the “Activity Ua” value in the experiment on E. coli TG1 pXL2158 is recorded as 270 μmols of cyanovalerate produce; with E. coli TG1 pXL2035,2158 it was 1500 μmols of cyanovalerate produce.
